Results published in PMC9841532, “Exploring the Effect of Halogenation in a Series of Potent and Selective A2B Adenosine Receptor Antagonists” (Journal of Medicinal Chemistry, 2022).
≈ marks a conversion by molar mass, not a printed value. Like-named read-outs stand apart in the source and are kept apart here.

Columns and labels:
hA3AR [1] = target: T1, hA3AR (Homo sapiens, UniProt P0DMS8); test: Radioligand binding competition, [3H]NECA, membranes from HeLa-A3 cells; settings: 1 μM, [3H]NECA, human HeLa cells, n = 2
T1 construct: expressed in transfected cells; host or cells: HeLa (HeLa-A3) cell membranes
T1 sequence (P0DMS8 1-318): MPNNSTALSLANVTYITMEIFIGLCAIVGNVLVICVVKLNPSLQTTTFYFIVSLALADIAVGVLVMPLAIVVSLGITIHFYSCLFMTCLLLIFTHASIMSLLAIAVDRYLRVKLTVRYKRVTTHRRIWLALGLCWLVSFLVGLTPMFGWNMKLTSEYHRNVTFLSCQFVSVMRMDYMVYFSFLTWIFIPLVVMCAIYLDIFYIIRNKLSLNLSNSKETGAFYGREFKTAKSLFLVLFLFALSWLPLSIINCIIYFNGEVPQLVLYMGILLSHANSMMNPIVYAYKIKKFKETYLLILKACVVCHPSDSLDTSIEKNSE
Procedure, shortened: (§1)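 Racemates, plus selected enantiomers after chiral resolution, were tested at 25 °C, with a 60 min incubation for one subtype and 30 min for others. Non-specific binding was defined with 10 μM or 100 μM R-PIA. Bound radioactivity was counted after washing and filtration.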

hA2AAR [2] = target: T2, hA2AAR (Homo sapiens, UniProt P29274); test: Radioligand binding competition, [3H]ZM241385, membranes from HeLa-A2A cells; settings: for % at 1 μM hA2A (percentage displacement of specific binding): [3H]ZM241385, human HeLa cells, n = 2
T2 construct: expressed in transfected cells; host or cells: HeLa (HeLa-A2A) cell membranes
Procedure, shortened: as §1

[3] = Human microsomal stability; type: in vitro ADME; settings: human microsomes; for microsomal stability percent (percentage remanent): sampling time 60 min; for microsomal CLint at 1 h / half-life at 1 h: human, pH 7.4; for microsomal CLint at 1 h: read-out: microsomal stability Clint (intrinsic clearance); for half-life at 1 h: read-out: microsomal stability t1/2
Protocol: The human microsomal stability of selected compounds was evaluated by following a previously described method.[31] The human microsomes employed were purchased from Tebu-Xenotech. The compound was incubated with the microsomes at 37 °C in a 50 mM phosphate buffer (pH = 7.4) containing 3 mM MgCl2, 1 mM NADP, 10 mM glucose-6-phosphate, and 1 U/mL glucose-6-phosphate-dehydrogenase. Samples (75 μL) were taken from each well at 0, 10, 20, 40, and 60 min and transferred to a plate containing 4 °C 75 μL acetonitrile and 30 μL of 0.5% formic acid in water was added for improving the chromatographic conditions. The plate was centrifuged (46,000 g, 30 min), and supernatants were taken and analyzed in a UPLC-MS/MS (Xevo TQD, Waters) by employing a BEH C18 column and an isocratic gradient of 0.1% formic acid in water:0.1% formic acid acetonitrile (60:40). The metabolic stability of the compounds was calculated from the logarithm of the remaining compounds at each of the time point studied.

[4] = Solubility determination (nephelometry); type: physicochemical; settings: 1:99 DMSO/PSB buffer, PBS pH 7, 37 °C
Protocol: The solubility of selected compounds was evaluated by following a previously described method.[31] A 10 mM stock solution of the compound was serially diluted in 100% DMSO, and 2.5 μL of this solution was added to a 384-well UV-transparent plate (Greiner) containing 47.5 μL of PBS (pH = 7). The plate was incubated at 37 °C for 4 h, and the light scattering was measured in a NEPHELOstar Plus reader (BMG LABTECH). The data was fitted to a segmented linear regression for measuring the compound solubility.

hA2BAR = target: T3, hA2BAR (Homo sapiens, UniProt P29275); test: Radioligand binding competition, [3H]DPCPX, membranes from HEK-293-A2B cells; design: Exp. dG: unit not given here; settings: for Ki: read-out: Ki hA2B; for Exp. dG: experimental binding free energy, Supplementary Table S3, unit not given (errors in kcal/mol)
T3 construct: host or cells: HEK-293 (HEK-293-A2B) cell membranes
T3 sequence (P29275 1-332): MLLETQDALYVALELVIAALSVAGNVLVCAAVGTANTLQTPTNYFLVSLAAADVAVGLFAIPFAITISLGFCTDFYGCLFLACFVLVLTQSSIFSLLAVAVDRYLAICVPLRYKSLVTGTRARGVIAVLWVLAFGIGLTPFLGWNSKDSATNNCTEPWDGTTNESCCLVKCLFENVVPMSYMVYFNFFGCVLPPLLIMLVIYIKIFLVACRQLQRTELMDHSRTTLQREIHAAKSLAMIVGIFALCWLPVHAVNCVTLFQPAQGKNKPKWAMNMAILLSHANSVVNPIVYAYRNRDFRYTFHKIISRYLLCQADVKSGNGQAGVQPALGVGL
Procedure, shortened: as §1

CYP3A4 = target: T4, CYP3A4 (Homo sapiens, UniProt P08684); test: CYP3A4 inhibition (fluorescence, substrates DBF or 7-BFC); type: biochemical; settings: for IC50: IC50 obtained by extrapolation with analysis software
T4 construct: host or cells: insect cell microsomes
Protocol: To identify potential metabolic liabilities within the series here documented, the selected A2BAR antagonists were tested in vitro for CYP3A4 inhibitory activity.
The inhibitory activity of selected compounds was evaluated by following a previously described method.[31] […] The plate was then pre-incubated at 37 °C for 5 min and the reaction initiated by the addition of a pre-warmed enzyme/substrate (E/S) mix. The E/S mix contained buffer (KH2PO4), c-DNA-expressed P450 in insect cell microsomes, substrate (DBF: dibenzylfluorescein or 7-BFC: 7-benzyloxy-4-trifluoromethyl-coumarin) and other components to give the final assay concentrations in a reaction volume of 200 μL. Reactions were terminated after various times (a specific time for each cytochrome) by addition of STOP solution (ACN/Tris–HCl 0.5 M 80:20, and NaOH 2 N for CYP3A4). Fluorescence per well was measured using a fluorescence plate reader (Tecan Infinite M1000 PRO), and percentage of inhibition was calculated. In silico predictions were performed using free web-based models (FAME 3, SmartCYP, and Xenosite).[62]−[64]

hA1AR [5] = target: T5, hA1AR (Homo sapiens, UniProt P30542); test: Radioligand binding competition, [3H]DPCPX, membranes from CHO-A1 cells; settings: for % at 1 μM hA1 (percentage displacement of specific binding): [3H]DPCPX, human CHO cells, n = 2
T5 sequence (P30542 1-326): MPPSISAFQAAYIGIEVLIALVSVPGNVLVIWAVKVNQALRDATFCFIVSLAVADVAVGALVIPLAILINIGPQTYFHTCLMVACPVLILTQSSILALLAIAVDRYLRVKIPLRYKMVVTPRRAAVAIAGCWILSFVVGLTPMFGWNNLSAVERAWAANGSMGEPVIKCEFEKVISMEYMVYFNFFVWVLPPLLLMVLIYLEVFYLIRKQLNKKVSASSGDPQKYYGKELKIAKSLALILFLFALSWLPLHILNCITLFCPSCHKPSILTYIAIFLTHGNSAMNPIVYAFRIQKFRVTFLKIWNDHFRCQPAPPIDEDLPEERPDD
Procedure, shortened: as §1

hA3AR [6] = target: T1, hA3AR; settings: prototype series, [3H]NECA, human HeLa cells ref 30, 31; cited from earlier work
A2B = settings: Figure 1, representative A2B antagonists ref 28-32; read-out: Ki; cited from earlier work
hA1AR [7] = target: T5, hA1AR; settings: prototype series, [3H]DPCPX, human CHO cells ref 30, 31; cited from earlier work
hA2AAR [8] = target: T2, hA2AAR; settings: prototype series, human HeLa cells ref 30, 31; cited from earlier work
[9] = displacement of specific [3H]DPCPX binding in human HEK-293 cells, n = 3
[10] = substrate 7-benzyloxy-4-trifluoromethyl-coumarin
[11] = substrate 7-benzyloxy-4-trifluoromethyl-coumarin, read-out: CYP3A4 IC50, 7-BFC
[12] = substrate dibenzylfluorescein, read-out: CYP3A4 IC50, DBF

T4 sequence (P08684 whole entry): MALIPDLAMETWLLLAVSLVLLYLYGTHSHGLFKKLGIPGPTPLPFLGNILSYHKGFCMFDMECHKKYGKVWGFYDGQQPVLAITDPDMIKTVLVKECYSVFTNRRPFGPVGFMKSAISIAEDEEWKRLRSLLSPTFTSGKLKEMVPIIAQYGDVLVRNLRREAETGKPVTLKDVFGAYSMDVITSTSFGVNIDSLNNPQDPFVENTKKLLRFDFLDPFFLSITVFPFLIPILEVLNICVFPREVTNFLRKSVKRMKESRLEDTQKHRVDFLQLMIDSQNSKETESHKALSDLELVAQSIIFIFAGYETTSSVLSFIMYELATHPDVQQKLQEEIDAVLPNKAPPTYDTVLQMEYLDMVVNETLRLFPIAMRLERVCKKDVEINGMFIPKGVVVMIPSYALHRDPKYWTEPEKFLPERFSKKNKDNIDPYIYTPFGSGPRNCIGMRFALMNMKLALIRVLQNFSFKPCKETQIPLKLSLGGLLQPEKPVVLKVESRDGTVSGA
T2 sequence (P29274 whole entry): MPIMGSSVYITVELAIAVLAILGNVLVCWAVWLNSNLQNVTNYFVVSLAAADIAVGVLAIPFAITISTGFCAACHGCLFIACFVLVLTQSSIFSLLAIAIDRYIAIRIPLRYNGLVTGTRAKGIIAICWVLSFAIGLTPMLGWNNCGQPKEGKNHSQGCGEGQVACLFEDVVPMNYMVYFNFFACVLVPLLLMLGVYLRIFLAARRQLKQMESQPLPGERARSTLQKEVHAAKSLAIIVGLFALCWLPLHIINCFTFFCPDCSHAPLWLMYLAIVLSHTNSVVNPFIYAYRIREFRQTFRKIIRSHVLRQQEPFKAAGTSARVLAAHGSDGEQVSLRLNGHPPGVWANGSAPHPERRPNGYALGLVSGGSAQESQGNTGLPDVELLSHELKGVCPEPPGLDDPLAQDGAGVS

| % at 1 μM hA3 (percentage displacement of specific binding) (hA3AR [1]) [%] | % at 1 μM hA2A (percentage displacement of specific binding) (hA2AAR [2]) [%] | microsomal stability percent (percentage remanent) [3] [%] | microsomal CLint at 1 h [3] [µL/min/mg] | half-life at 1 h [3] [min] | solubility at 4 h [4] [µM] | Ki (hA2BAR; [9]) [nM] | CYP3A4 % inh. at 10 μM, 7-BFC (CYP3A4; [10]) [%] | CYP3A4 % inh. at 10 μM, DBF (CYP3A4; substrate dibenzylfluorescein) [%] | % at 1 μM hA1 (percentage displacement of specific binding) (hA1AR [5]) [%] | Exp. dG (hA2BAR) | IC50 (CYP3A4; [11]) [µM] | IC50 (CYP3A4; [12]) [µM] | Ki (hA2BAR) [nM] | Structure (SMILES) | % at 1 μM hA3 (percentage displacement of specific binding) (hA3AR [6]) [%] | % at 1 μM hA1 (percentage displacement of specific binding) (hA1AR [7]) [%] | % at 1 μM hA2A (percentage displacement of specific binding) (hA2AAR [8]) [%] | further results |
| --- | --- | --- | --- | --- | --- | --- | --- | --- | --- | --- | --- | --- | --- | --- | --- | --- | --- | --- |
| 20 | 20 | 35.15 | 12.8 | 40.8 | 64.6 (≈ 23 µg/mL) | 6.1 ± 0.3 | 52 | 31 | 29 | -11.2 |  | > 10 | < 10 | CC1=C(C(=O)OC(C)C)C(c2cocn2)n2c(nc3cc(F)ccc32)N1 (stereo not drawn) [18b] |  |  |  |  |
|  |  |  |  |  |  | 3.49 ± 0.2 |  |  |  | -11.53 |  |  |  | CC1=C(C(=O)OC(C)C)C(c2ccco2)n2c(nc3ccccc32)N1 (stereo not drawn) [II, reference compound] | 2 | 20 | 28 | % at 1 μM hA3 (percentage displacement of specific binding) (hA3AR [1]; listed as (±)-ISAM-140): 2%; % at 1 μM hA3 (percentage displacement of specific binding) (hA3AR [1]; listed as ISAM-140): 3%; % at 1 μM hA2A (percentage displacement of specific binding) (hA2AAR [2]; listed as (±)-ISAM-140): 28%; % at 1 μM hA2A (percentage displacement of specific binding) (hA2AAR [2]; listed as ISAM-140): 7%; Ki (A2B): 3.49 nM; % at 1 μM hA2B (percentage displacement of specific binding) (hA2BAR; 1 μM, [3H]DPCPX, human HEK-293 cells, n = 2): 17%; % at 1 μM hA1 (percentage displacement of specific binding) (hA1AR [5]; listed as (±)-ISAM-140): 20%; % at 1 μM hA1 (percentage displacement of specific binding) (hA1AR [5]; listed as ISAM-140): 14% |
|  |  |  |  |  |  |  |  |  |  | -10.48 |  |  |  | CCOC(=O)C1=C(C)Nc2nc3ccccc3n2C1c1ccoc1 (stereo not drawn) [III] | 1 | 7 | 11 |  |

Second part, the compound before the results:

| Structure (SMILES) | % at 1 μM hA3 (percentage displacement of specific binding) (hA3AR [1]) [%] | % at 1 μM hA2A (percentage displacement of specific binding) (hA2AAR [2]) [%] | microsomal stability percent (percentage remanent) [3] [%] | microsomal CLint at 1 h [3] [µL/min/mg] | half-life at 1 h [3] [min] | solubility at 4 h [4] [µM] | Ki (hA2BAR; [9]) [nM] | CYP3A4 % inh. at 10 μM, 7-BFC (CYP3A4; [10]) [%] | CYP3A4 % inh. at 10 μM, DBF (CYP3A4; substrate dibenzylfluorescein) [%] | % at 1 μM hA1 (percentage displacement of specific binding) (hA1AR [5]) [%] | Exp. dG (hA2BAR) | IC50 (CYP3A4; [11]) [µM] | IC50 (CYP3A4; [12]) [µM] | Ki (hA2BAR) [nM] | % at 1 μM hA3 (percentage displacement of specific binding) (hA3AR [6]) [%] | % at 1 μM hA1 (percentage displacement of specific binding) (hA1AR [7]) [%] | % at 1 μM hA2A (percentage displacement of specific binding) (hA2AAR [8]) [%] | further results |
| --- | --- | --- | --- | --- | --- | --- | --- | --- | --- | --- | --- | --- | --- | --- | --- | --- | --- | --- |
| CC1=C(C(=O)OC(C)C)C(c2ccco2)n2c(nc3cc(F)c(F)cc32)N1 (stereo not drawn) [14b] | 14 | 22 | 20.97 | 21.6 | 28.9 | 62 (≈ 23.1 µg/mL) | 11.9 ± 1.1 | 58 | 39 | 13 |  |  |  |  |  |  |  |  |
| CC1=C(C(=O)OC(C)C)C(c2ccco2)n2c(nc3ccc(Cl)cc32)N1 (stereo not drawn) [15j] | 5 | 17 | 16.83 | 26.4 | 21.1 | 58.2 (≈ 21.6 µg/mL) | 44.3 ± 1.4 | 11 | 47 |  | -10.03 | > 10 | > 10 |  |  |  |  | Ki (hA1AR [5]; displacement of specific [3H]DPCPX binding in human CHO cells, n = 3, read-out: Ki hA1): 667 ± 12 nM |
| CC1=C(C(=O)OC(C)C)C(c2ccoc2)n2c(nc3cc(Cl)ccc32)N1 (stereo not drawn) [16l] | 1 |  | 41.02 | 11.7 | 44.8 | 21.9 (≈ 8.14 µg/mL) | 6.1 ± 0.7 | 44 |  | 27 | -11.2 | > 10 | 6.36 ± 1.02 | < 10 |  |  |  | Ki (hA2AAR [2]; displacement of specific [3H]ZM241385 binding in human HeLa cells, n = 3, read-out: Ki hA2A): 176 ± 4 nM |
